Data published in publication PMC7525093, “Bis-Quinolinium Cyclophane Blockers of SK Potassium Channels Are Antagonists of M3 Muscarinic Acetylcholine Receptors” (Frontiers in Pharmacology, 2020).

Columns and labels:
M1 muscarinic receptor = molecular target: T1, M1 muscarinic receptor (Homo sapiens, UniProt P11229); experiment: R-CEPIAer ER calcium assay, CHO cells transiently transfected with M1 receptor; assay type: cell-based
T1 construct: expressed in transfected cells; host or cells: CHO cells, transiently co-transfected with pCMV R-CEPIAer
T1 sequence (P11229 1-460): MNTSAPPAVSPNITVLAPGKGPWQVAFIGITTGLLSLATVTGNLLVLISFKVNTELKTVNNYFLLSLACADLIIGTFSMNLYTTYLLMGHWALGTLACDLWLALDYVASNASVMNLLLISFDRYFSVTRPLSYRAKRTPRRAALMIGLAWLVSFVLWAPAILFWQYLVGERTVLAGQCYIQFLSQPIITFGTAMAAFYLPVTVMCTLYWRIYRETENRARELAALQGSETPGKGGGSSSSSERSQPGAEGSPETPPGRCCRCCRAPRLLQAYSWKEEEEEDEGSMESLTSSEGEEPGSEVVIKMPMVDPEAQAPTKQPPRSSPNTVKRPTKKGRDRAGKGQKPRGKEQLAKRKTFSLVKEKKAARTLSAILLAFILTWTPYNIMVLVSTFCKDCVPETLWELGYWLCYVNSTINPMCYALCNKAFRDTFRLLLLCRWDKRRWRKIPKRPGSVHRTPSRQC
Description: [Worded in the source for another target; used here, by the source, with some conditions changed.] The binding of antagonists to Gq-coupled receptors was determined by measuring IP3-mediated calcium depletion from the endoplasmic reticulum (ER). This was accomplished using CHO-K1 cells stably transfected with human M3 muscarinic acetylcholine receptor (CEM3000000, cDNA Resource Center, Bloomsburg University) and R-CEPIAer, a low affinity ER-targeted calcium indicator fluorescent protein ([Suzuki et al., 2014]). R-CEPIAer reporting of ER calcium concentration was assessed using 564 nm excitation light (>590 long-pass emission) at 20 second intervals on a Nikon swept-field confocal microscope using slit-scan mode, 2x2 Binning, and 100 millisecond frames. F/Fmax was fluorescence intensity normalized to maximal fluorescence intensity during the experiment. The response of cells to Gq-coupled receptor agonist were measured as the change in F/Fmax (ΔF/Fmax) from preagonist value to fluorescence minimum during agonist application (that occurs by IP3-mediated ER calcium depletion). […] Perfusion of each agonist application was for 2 min, while the antagonist overlapped and preceded the second agonist application by 3 min. […] IC50 was calculated by assaying fractional inhibition using a dose-response of antagonist concentrations (i.e. Figure 1D ). […]

bladder = experiment: Isometric bladder ring tension measurement; design: species or system mouse; details: 3.5 μM; 0.5 μM carbachol
Description: Mice used in these studies were BALB/C mice from Jackson Labs. All animal procedures were reviewed and approved by the University of Texas Health Science Center at San Antonio Institutional Animal Care and Use Committee. For tracheal constriction studies, animals were deeply anesthetized with isoflurane and then sacrificed by cervical dislocation. Isometric tracheal contraction measurements were performed as previously described ([Semenov et al., 2012]). Trachea were removed and surrounding tissues dissected in ice-cold physiologic saline solution (PSS) consisting of 119 mM NaCl, 4.7 mM KCl, 2.0 mM CaCl2, 1.0 mM KH2PO4, 1.17 mM MgSO4, 18 mM NaHCO3, 0.026 mM EDTA, 11 mM glucose, and 12.5 mM sucrose. Trachea were cut below the pharynx and above the primary bronchus bifurcation. Two metal wires, attached to a force transducer and micrometer (Radnoti, LLC), were threaded into the lumen of the trachea. Trachea were placed into an oxygenated organ bath (95% O2, 5% CO2), at 37°C, pH 7.35 (after bubbling with 95% O2–5% CO2). Tracheal resting tension was readjusted to 1 gram over 1 h and then challenged with 67 mM potassium PSS with NaCl adjusted to 56.7 mM to maintain proper osmolarity (KPS). Trachea were challenged two or more times until reproducible contractile responses were achieved. All subsequent experimental drug responses were normalized to the KPS response. […]

SK potassium channels = details: ref Campos Rosa et al., 1996; read-out: IC50, block of SK channels; cited from earlier work

With `c1cc2cc(c1)C[n+]1ccc(c3ccccc31)NCc1ccc(cc1)CNc1cc[n+](c3ccccc13)C2` [UCL 1684, 6,12,19,20,25,26-Hexahydro-5,27:13,18:21,24-trietheno-11,7-metheno-7H-dibenzo [b,n] [1,5,12,16]tetraazacyclotricosine-5,13-diium dibromide] the IC50 (M1 muscarinic receptor) was 120 nM, the “Hill slope of inhibition curve, M1 receptor” value (M1 muscarinic receptor; 0.5 μM carbachol) was 0.67 ± 0.5 and the “Relaxation response of bladder” value (bladder) was 31.4 ± 8.4. For the same compound, the IC50 (SK potassium channels) was 3 nM.
